Tested on: mouse spleen cells
Assay: Mitogen (concanavalin A)-induced mouse spleen cell proliferation, 3H-thymidine incorporation; suppression by immunosuppressive factor and restoration
Assay type: cell-based
Experimental: 1) Preparation of immunosuppressive factor from tumor bearing mice serum.
ICR mice were intraperitonealy inoculated with 0.2 ml of S-180 suspension (5x10^6 cells/ml). S-180 bearing mice were bled from heart under light ether anesthesia with sterile synringe between 7 and 9 days after transplantation and serum was collected.
Immunosuppressive factor was partially purified from the S-180 tumor bearing mice serum according to the method described by SE-KYUNG OH and F.L.MOOLTEN (J. Immunol., 127, 2300-2307, 1981). Briefly, the serum (50 ml) was delipidated with 1/10 vol. of 4% phosphotungstic acid and 1/40 vol of 2M magnesium chloride and centrifuged at 6000 x G for 10 min. Excess phosphotungstic acid and magnesium ion were removed by dialysis against phosphate- buffered saline (PBS: 0.15 M sodium chloride and 0.01 M phosphate buffer, pH 7.4). Then, partially delipidated serum was precipitated with ammonium sulfate at 50% saturation. The supernatant was removed by centrifugation at 20000 x G for 30 min. The precipitates were redissolved in a small volume of water and dialysed against PBS overnight at 4°C. The dialysed solution was chromatographed on Sephadex G-200 column in PBS. Each eluate (15 ml) was assayed for suppressive activity.
Immunosuppressive activity was measured by assay for inhibition of the mitogen-induced mouse spleen cell proliferation.
3) Suppression of mitogen-induced mouse spleen cell proliferation and its restoration by swainsonine in vitro.
Mitogenic activities for mouse spleen cells in vitro : • a) Mice. Female BALB/C strain (8 weeks of age) was used. • b) Tissue culture medium : The tissue culture medium employed was a complete medium designated Roswell Park Memorial Institute(RPMI)-1640. All media employed contained 100 units/ml of penicillin G and 100 µg/ml of streptomycin sulfate and 5% fetal calf serum. • c) Spleen cell preparation : Spleens were removed under sterile conditions and washed with Hanks solution and then teased in the tissue culture medium. The cells were suspended in the tissue culture medium to contain 5 x 10^5 cells/ml. • d) Culture conditions : Into each hole of Microtiteration plate (Falcon No. 3040) were poured 0.1 ml of the above cells suspension and 0.1 ml of the prescribed concentrate of the compound and/or immunosuppressive factor described above. […] The culture was incubated in triplicate at 37°C in a humidified atmosphere (95% air, 5% C02) for 48 hours. • e) Assay for mitogen induced mouse spleen cells proliferation. The mitogen induced mouse spleen cells proliferation was assayed for tritiated thymidine (^3H-thymidine) incorporation. In all tests, 20 pl of 10 micro curie (uCi)/ml of ^3H-thymidine was added to each hole for the 48 hours of culture. After further 24 hours incubation, the culture was terminated.
The resultant cells were filtered with filter paper, Whatman GF83 and washed successively with saline and with 5% trichloroacetic acid. The filter paper was dried and placed in a scintillator(toluene 1 liter containing 0.1 g of p-bis(5-phenyl oxazole)-benzene and 4 g of 2,5-diphenyloxazole), and ^3H-thymidine incorporated into DNA was measured.

[1] = swainsonine alone added to mouse spleen cell culture

SMILES: O[C@H]1[C@H]2[C@H](O)CCCN2C[C@H]1O [Swainsonine]
- Con A induced stimulation of ^3H-thymidine incorporation into mouse spleen cell, increase relative to Con A only (Con A and swainsonine added simultaneously): 10 times
- ^3H-thymidine uptake (cpm) (Concanavalin A 0.3 µg/well + swainsonine 0.0002 µg/well): 67,017 cpm
- ^3H-thymidine uptake (cpm) (Concanavalin A 0.3 µg/well + swainsonine 0.002 µg/well): 105,850 cpm
- ^3H-thymidine uptake (cpm) (Concanavalin A 0.3 µg/well + swainsonine 0.02 µg/well): 108,748 cpm
- ^3H-thymidine uptake (cpm) (Concanavalin A 0.3 µg/well + swainsonine 0.2 µg/well): 118,071 cpm
- ^3H-thymidine uptake (cpm) (Concanavalin A 0.3 µg/well + swainsonine 2 µg/well): 100,480 cpm
- ^3H-thymidine uptake (cpm) (Concanavalin A 0.3 µg/well + swainsonine 20 µg/well): 68,778 cpm
- ^3H-thymidine uptake (cpm) (Concanavalin A 1 µg/well + Immunosuppressive factor 6 µl/well + swainsonine 0.002 µg/well): 69,313 cpm
- ^3H-thymidine uptake (cpm) (Concanavalin A 1 µg/well + Immunosuppressive factor 6 µl/well + swainsonine 0.02 µg/well): 66,858 cpm
- ^3H-thymidine uptake (cpm) (Concanavalin A 1 µg/well + Immunosuppressive factor 6 µl/well + swainsonine 0.2 µg/well): 70,890 cpm
- ^3H-thymidine uptake (cpm) (Concanavalin A 1 µg/well + Immunosuppressive factor 6 µl/well + swainsonine 2 µg/well): 53,500 cpm
- ^3H-thymidine uptake (cpm) (Concanavalin A 1 µg/well + Immunosuppressive factor 6 µl/well + swainsonine 20 µg/well): 37,746 cpm
- ^3H-thymidine uptake (cpm) (Swainsonine alone, 0.0002 µg/well): 1,311 cpm
- ^3H-thymidine uptake (cpm) (Swainsonine alone, 0.002 µg/well): 1,598 cpm
- ^3H-thymidine uptake (cpm) (Swainsonine alone, 0.02 µg/well): 1,712 cpm
- ^3H-thymidine uptake (cpm) (Swainsonine alone, 0.2 µg/well): 1,734 cpm
- ^3H-thymidine uptake (cpm) (Swainsonine alone, 2 µg/well): 1,726 cpm
- ^3H-thymidine uptake (cpm) (Swainsonine alone, 20 µg/well): 1,260 cpm
- suppression of mitogenic response by immunosuppressive factor (swainsonine added to culture containing immunosuppressive factor): prevented the suppression
- mitogenic activity of mouse spleen cell [1]: did not affected
- spleen cell viability [1]: did not affected
